Values quoted from earlier work as cited in patent US11160745B2, “Methods and compositions for topical delivery for skin care” (priority 2014, dated 2021).
Like-named read-outs stand apart in the source and are kept apart here.

What was measured:
wrinkles around the eyes = conditions: for Reduction of the depth of wrinkles: independent study; for Decrease in severity of wrinkles around the eyes: ONV emulsion containing 10% Argireline solution, twice a day
ternary SNARE complex = target: T1, ternary SNARE complex (Homo sapiens, UniProt Q16623); conditions: immunoblot with anti-syntaxin mAb
T1 construct: Chromaffin cells were prepared and further separated from erythrocytes and other impurities by centrifugation gradient; endogenous in cells; complex immunoprecipitated
T1 sequence (Q16623 whole entry, one chain of several): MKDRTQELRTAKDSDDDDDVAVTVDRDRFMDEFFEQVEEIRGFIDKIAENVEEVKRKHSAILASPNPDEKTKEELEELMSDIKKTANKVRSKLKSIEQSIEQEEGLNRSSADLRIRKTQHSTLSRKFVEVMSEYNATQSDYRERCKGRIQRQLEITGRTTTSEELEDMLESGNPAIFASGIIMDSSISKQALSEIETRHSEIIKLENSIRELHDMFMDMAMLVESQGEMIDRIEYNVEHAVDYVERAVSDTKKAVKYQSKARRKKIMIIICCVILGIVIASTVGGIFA

chromaffin cells = conditions: tritiated noradrenaline/adrenaline, liquid scintillation counting

Ac-EEMQRR-NH2 [Argireline, (6S,9S,12S,15S,18S,21 S)-21-Acetamido-1-amino-12-(3-amino-3-oxopropyl)-6-carbamoyl-18-(2-carboxyethyl)-9-(3-guanidinopropyl)-1-imino-15-(2-(methylthio)ethyl)-8,11,14,17,20-pentaoxo-2,7,10,13,16,19-hexaazatetracosan-24-oic acid]
Reduction of the depth of wrinkles (wrinkles around the eyes; after 15 days of treatment): up to 17% | Decrease in severity of wrinkles around the eyes (wrinkles around the eyes; after 15 days): up to 17% | Decrease in severity of wrinkles around the eyes (wrinkles around the eyes; after 30 days): up to 27% | Reduction of the depth of wrinkles (wrinkles around the eyes; following 30 days of treatment): up to 27% | SNARE complex formation (ternary SNARE complex): modulates SNARE complex formation at concentrations in the mM range | Release of catecholamines (adrenaline and noradrenaline) (chromaffin cells): significant modulation of both neurotransmitters at nM concentrations
